The test system of experiment [1] is two spotted spider mite (Tetranychus urticae). As to the kind of experiment: whole plant or invertebrate. As to conditions: 72 h, read-out: percent mortality, TSSM.
Experiment [2] deals with tobacco budworm (Heliothis virescens). Kind of experiment: Activity against tobacco budworm (TBW). Format: in vivo. As to conditions: 144 h, read-out: percent mortality, TBW. The protocol: In conducting evaluations of insecticidal activity, each test compound was formulated as a 400 ppm solution, and this solution was then diluted with water to give lesser concentrations. The 400 ppm solution was prepared by combining 19.2 mL of 0.05% solution of Tween 20 (polyoxyethylene (20) sorbitan monolaurate) in water with a solution of 8 mg of the compound in 0.8 mL of acetone/EtOH (9/1).
Activity against tobacco budworm (Heliothis virescens) was evaluated as follows. A general purpose lepidoptera artificial diet was diluted to half strength with a 5% non nutritive agar. 8 mL of this diet material was dispensed into each one ounce diet cup. One hour prior to treatment 18 to 20 eggs were dispensed onto the diet surface. The cups were then sprayed with formulated material through a flat-fan nozzle. The test was run using concentrations of 400 ppm and 50 ppm. Treated cups were air dried prior to sealing with plastic caps. The cups were held for 6 days at room temperature. Activity was then rated based on the total number of live and dead larvae, and on the size of live larvae.

Experiment [3] concerns beet armyworm (Spodoptera exiqua). Kind of experiment: whole plant or invertebrate. As to conditions: 144 h, read-out: percent mortality, BAW.
Experiment [4] deals with cotton aphid (Aphis gossypii). Kind of experiment: whole plant or invertebrate. As to conditions: 72 h, read-out: percent mortality, CA.
In experiment [5] the test system is German cockroach (Blattella germanicus). Kind of experiment: whole plant or invertebrate. As to conditions: 240 h, read-out: percent mortality, GECR.
Experiment [6] deals with peanut root knot nematode (Meloidogyne arenaria). As to the kind of experiment: whole plant or invertebrate. As to conditions: in Arachis hypogaea, read-out: percent mortality, RKN.
The subject of experiment [7] is Southern corn rootworm (Diabrotica undecimpuctata howardi Barber). As to the kind of experiment: whole plant or invertebrate. As to conditions: in Zea mays, soil, read-out: percent mortality, SCRW.

For the molecule `CCc1nccc(NC(=O)Cc2ccc(Oc3ccc(Cl)cc3)cc2)n1` [Compound 17, 4-(4-chlorophenoxy)phenyl-N-(2-ethyl-4-pyrimidinyl)acetamide], the mortality at 400 ppm in experiment [1], in experiment [2], in experiment [3], in experiment [4], in experiment [5] and in experiment [6] was 100% each time. In experiment [7], the mortality at 24 µg/g was 100%.

In the case of `CCCc1nccc(NC(=O)Cc2ccc(OCC(F)(F)F)cc2)n1` [Compound 18, 4-(2,2,2-trifluroethoxy)phenyl-N-(2-propyl-4-pyrimidinyl)acetamide], the mortality at 400 ppm in experiment [1] worked out at 80%; in experiment [2] it was 80%; in experiment [3], 100%; in experiment [4], 100%; in experiment [5], 20%; in experiment [6], 100%. Moreover, the mortality at 24 µg/g in experiment [7] was 0%.

For `CCCc1nccc(NC(=O)Cc2ccc(Oc3ccc(F)cc3)cc2)n1` [Compound 19, 4-(4-fluorophenoxy)phenyl-N-(2-propyl-4-pyrimidinyl)acetamide], the mortality at 400 ppm in experiment [1], in experiment [2], in experiment [3], in experiment [4], in experiment [5] and in experiment [6] was 100% each time. Moreover, the mortality at 24 µg/g in experiment [7] amounted to 100%.

For `CCCCc1nccc(NC(=O)Cc2ccc(OCC(F)(F)F)cc2)n1` [Compound 20, 4-(2,2,2-trifluroethoxy)phenyl-N-(2-butyl-4-pyrimidinyl)acetamide], the mortality at 400 ppm in experiment [1] stood at 0%; in experiment [2] it was 0%; in experiment [3], 100%; in experiment [4] it was 0%; in experiment [5] it was 0%; in experiment [6], 80%. Moreover, the mortality at 24 µg/g in experiment [7] was 100%.

As to `CCCCc1nccc(NC(=O)Cc2ccc(Oc3ccc(F)cc3)cc2)n1` [Compound 21, 4-(4-fluorophenoxy)phenyl-N-(2-butyl-4-pyrimidinyl)acetamide], the mortality at 400 ppm in experiment [1] amounted to 100%; in experiment [2] it was 100%; in experiment [3] it was 100%; in experiment [4] it was 100%; in experiment [5] it was 100%; in experiment [6], 90%. Further, in experiment [7], the mortality at 24 µg/g is 0%.

In the case of `O=C(Cc1ccc(OCC(F)(F)F)cc1)Nc1ccnc(C2CCC2)n1` [Compound 22, 4-(2,2,2-trifluroethoxy)phenyl-N-(2-cyclobutyl-4-pyrimidinyl)acetamide], the mortality at 400 ppm in experiment [1] is 100%; in experiment [2], 0%; in experiment [3], 100%; in experiment [4] it was 100%; in experiment [5], 80%; in experiment [6], 100%. Moreover, in experiment [7], the mortality at 24 µg/g came out at 100%.

For the molecule `O=C(Cc1ccc(Oc2ccc(F)cc2)cc1)Nc1ccnc(C2CCC2)n1` [Compound 23, 4-(4-fluorophenoxy)phenyl-N-(2-cyclobutyl-4-pyrimidinyl)acetamide], the mortality at 400 ppm in experiment [1], in experiment [2], in experiment [3], in experiment [4], in experiment [5] and in experiment [6] was 100% throughout. Further, in experiment [7], the mortality at 24 µg/g came to 0%.

In the case of `CC(C)(C)c1nccc(NC(=O)Cc2ccc(OCC(F)(F)F)cc2)n1` [Compound 24, 4-(2,2,2-trifluroethoxy)phenyl-N-(2-(1,1-dimethylethyl)-4-pyrimidinyl)acetamide], the mortality at 400 ppm in experiment [1] came out at 60%; in experiment [2] it was 100%; in experiment [3], 100%; in experiment [4], 90%; in experiment [5], 0%; in experiment [6], 0%. For the same molecule, the mortality at 24 µg/g in experiment [7] is 100%.

As for `CC(C)(C)c1nccc(NC(=O)Cc2ccc(Oc3ccc(F)cc3)cc2)n1` [Compound 25, 4-(4-fluorophenoxy)phenyl-N-(2-(1,1-dimethylethyl)-4-pyrimidinyl)acetamide], the mortality at 400 ppm in experiment [1], in experiment [2], in experiment [3], in experiment [4], in experiment [5] and in experiment [6] was 100% throughout. Moreover, the mortality at 24 µg/g in experiment [7] was found to be 100%.

`C=C(C)c1nccc(NC(=O)Cc2ccc(Oc3ccc(F)cc3)cc2)n1` [Compound 27, 4-(4-fluorophenoxy)phenyl-N-(2-(1-methylethenyl)-4-pyrimidinyl)acetamide]: the mortality at 400 ppm in experiment [1] stood at 0%; in experiment [2], 0%; in experiment [3] it was 0%; in experiment [4], 100%; in experiment [5], 0%; in experiment [6], 0%. For the same molecule, the mortality at 24 µg/g in experiment [7] came out at 0%.

Regarding `CCc1nccc(NC(=O)Cc2ccc(-c3ccccc3)cc2)n1` [Compound 40], the mortality at 400 ppm in experiment [1] was 0%; in experiment [2] it was 40%; in experiment [3] it was 20%; in experiment [4], 60%.

In the case of `CCCCCc1ccc(CC(=O)Nc2ccnc(CC)n2)cc1` [Compound 41, 4-pentylphenyl-N-(2-ethyl-4-pyrimidinyl)acetamide], the mortality at 400 ppm in experiment [1] came to 100%; in experiment [2], 40%; in experiment [3] it was 100%; in experiment [4], 100%.

Take `CCc1nccc(NC(=O)Cc2ccc(OC(F)F)cc2)n1` [Compound 42, 4-difluromethoxy-N-(2-ethyl-4-pyrimidinyl)acetamide]: the mortality at 400 ppm in experiment [1] worked out at 100%; in experiment [2] it was 0%; in experiment [3], 40%; in experiment [4], 100%.

On to `CCc1nccc(NC(=O)Cc2ccc(OCC(F)(F)C(F)F)cc2)n1` [Compound 43, 4-(2,2,3,3-tetrafluropropoxy)phenyl-N-(2-ethyl-4-pyrimidinyl)acetamide], for which the mortality at 400 ppm came to 100% in experiment [1], 60% in experiment [2], 60% in experiment [3] and 100% in experiment [4].

With `CCCCOc1ccc(CC(=O)Nc2ccnc(CC)n2)cc1` [Compound 44, 4-butoxyphenyl-N-(2-ethyl-4-pyrimidinyl)acetamide], the mortality at 400 ppm was 90% in experiment [1], 0% in experiment [2], 100% in experiment [3] and 100% in experiment [4].

Turning to `CCc1nccc(NC(=O)Cc2ccc(C(C)C)cc2)n1` [Compound 45, 4-(1-methylethyl)phenyl-N-(2-ethyl-4-pyrimidinyl)acetamide], the mortality at 400 ppm amounted to 100% in experiment [1], 0% in experiment [2], 100% in experiment [3] and 100% in experiment [4].

As to `CCc1nccc(NC(=O)COc2ccc(C(C)C)cc2)n1` [Compound 46, 4-(1-methylethyl)phenoxy-N-(2-ethyl-4-pyrimidinyl)acetamide], the mortality at 400 ppm in experiment [1], in experiment [2], in experiment [3] and in experiment [4] was 0% each time.

As for `CCc1nccc(NC(=O)Cc2ccc(Oc3ccccc3)cc2)n1` [Compound 47, 4-phenoxyphenyl-N-(2-ethyl-4-pyrimidinyl)acetamide], the mortality at 400 ppm in experiment [1] stood at 100%; in experiment [2] it was 40%; in experiment [3], 100%; in experiment [4], 100%.

In the case of `CCc1nccc(NC(=O)Cc2ccc(C(C)(C)C)cc2)n1` [Compound 48, 4-(1,1-dimethylethyl)phenyl-N-(2-ethyl-4-pyrimidinyl)acetamide], the mortality at 400 ppm in experiment [1] came out at 100%; in experiment [2] it was 20%; in experiment [3], 0%; in experiment [4], 100%.

For `CCc1nccc(NC(=O)Cc2ccc(Oc3ccc(C(C)=O)cc3)cc2)n1` [Compound 49, 4-(4-acetylphenoxy)phenyl-N-(2-ethyl-4-pyrimidinyl)acetamide], the mortality at 400 ppm is 100% in experiment [1], 40% in experiment [2], 100% in experiment [3] and 100% in experiment [4].

For the molecule `CCc1nccc(NC(=O)Cc2ccc3ccccc3c2)n1` [Compound 50, 2-naphthyl-N-(2-ethyl-4-pyrimidinyl)acetamide], the mortality at 400 ppm in experiment [1] came out at 100%; in experiment [2], 40%; in experiment [3], 60%; in experiment [4] it was 100%.

One may read the mortality as the share of the test organisms that died.

Source of the values: patent US5556859A, “N-(4-pyrimidinyl)amide pesticides” (DowElanco, priority 1994, dated 1996).
